# According to ChEMBL document CHEMBL3885881, “DrugMatrix”:
# Assays:
# [1] = species: Rattus norvegicus; test: DrugMatrix - Regimen: Daily Repeat; assay type: toxicity, organism-based, Sprague-Dawley; parameters: regimen Daily Repeat, gender Male, age 6-8 weeks; details: in vivo, po, 0 mg/kg, route oral GAVAGE, dose level Control, vehicle .5 % CMC
# [2] = species: Rattus norvegicus; assay type: toxicity, organism-based, Sprague-Dawley; details: in vivo, po, 0 mg/kg, 24 h, vehicle control, route oral GAVAGE, dose level Control, time 1 day, vehicle .5 % CMC
# Description: DrugMatrix - Regimen: Single
# [3] = […], tissue Plasma, time 14 day
compound,measurement,setting,value
ClC(Br)Br [DIBROMOCHLOROMETHANE],URIC ACID,"[1]; 120 h, tissue Plasma, time 5 day",1 mg/dL
same,ABSOLUTE BASOPHIL,"[1]; […], tissue Blood, time 14 day",0 CELLS/uL
same,ABSOLUTE EOSINOPHIL,"[1]; […], tissue Blood, time 14 day",117.17 CELLS/uL
same,ABSOLUTE LYMPHOCYTE,"[1]; […], tissue Blood, time 14 day",13562 CELLS/uL
same,ABSOLUTE MONOCYTE,"[1]; […], tissue Blood, time 14 day",534.83 CELLS/uL
same,ABSOLUTE SEGMENTED NEUTROPHIL,"[1]; […], tissue Blood, time 14 day",2486 CELLS/uL
same,BASOPHIL,"[1]; […], tissue Blood, time 14 day",0%
same,EOSINOPHIL,"[1]; […], tissue Blood, time 14 day",0.83%
same,ERYTHROCYTE COUNT,"[1]; […], tissue Blood, time 14 day",6.14 x10E6/uL
same,HEMATOCRIT,"[1]; […], tissue Blood, time 14 day",36.87%
same,HEMOGLOBIN,"[1]; […], tissue Blood, time 14 day",13.87 G/DL
same,LEUKOCYTE COUNT,"[1]; […], tissue Blood, time 14 day",16.7 x10E3/uL
same,LYMPHOCYTE,"[1]; […], tissue Blood, time 14 day",81%
same,MEAN CORPUSCULAR HEMOGLOBIN,"[1]; […], tissue Blood, time 14 day",22.63 pg
same,MEAN CORPUSCULAR HEMOGLOBIN CONCENTRATION,"[1]; […], tissue Blood, time 14 day",37.62 G/DL
same,MEAN CORPUSCULAR VOLUME,"[1]; […], tissue Blood, time 14 day",60.15 fL
same,MONOCYTE,"[1]; […], tissue Blood, time 14 day",3.17%
same,NEUTROPHIL,"[1]; […], tissue Blood, time 14 day",15%
same,NUCLEATED RED BLOOD CELLS,"[1]; […], tissue Blood, time 14 day",0 /100WBC
same,PLATELET COUNT,"[1]; […], tissue Blood, time 14 day",974.83 x10E3/uL
same,ALANINE AMINOTRANSFERASE,[1]; [3],52.33 u/L
same,ALBUMIN,[1]; [3],4.48 G/DL
same,ALKALINE PHOSPHATASE,[1]; [3],346.17 u/L
same,ASPARTATE AMINOTRANSFERASE,[1]; [3],81 u/L
same,BLOOD UREA NITROGEN,[1]; [3],15.67 mg/dL
same,CARBON DIOXIDE,[1]; [3],34.33 mmol/L
same,CHLORIDE,[1]; [3],100.17 MEQ/L
same,CHOLESTEROL,[1]; [3],70.83 mg/dL
same,CREATININE,[1]; [3],0.22 mg/dL
same,GLUCOSE,[1]; [3],141.17 mg/dL
same,LACTATE DEHYDROGENASE,[1]; [3],121.33 u/L
same,LIPASE,[1]; [3],8.33 u/L
same,PHOSPHORUS,[1]; [3],9.97 mg/dL
same,POTASSIUM,[1]; [3],6.4 MEQ/L
same,SODIUM,[1]; [3],143.72 MEQ/L
same,TOTAL BILIRUBIN,[1]; [3],0.22 mg/dL
same,TOTAL PROTEIN,[1]; [3],6.45 G/DL
same,URIC ACID,[1]; [3],1.25 mg/dL
same,ABSOLUTE EOSINOPHIL,[2]; tissue Blood,150 CELLS/uL
same,ABSOLUTE LYMPHOCYTE,[2]; tissue Blood,13279.83 CELLS/uL
same,ABSOLUTE MONOCYTE,[2]; tissue Blood,654.5 CELLS/uL
same,ABSOLUTE SEGMENTED NEUTROPHIL,[2]; tissue Blood,1565.67 CELLS/uL
same,BASOPHIL,[2]; tissue Blood,0%
same,EOSINOPHIL,[2]; tissue Blood,1%
same,ERYTHROCYTE COUNT,[2]; tissue Blood,5.36 x10E6/uL
same,HEMATOCRIT,[2]; tissue Blood,33.37%
same,HEMOGLOBIN,[2]; tissue Blood,12.52 G/DL
same,LEUKOCYTE COUNT,[2]; tissue Blood,15.65 x10E3/uL
same,LYMPHOCYTE,[2]; tissue Blood,84.83%
same,MEAN CORPUSCULAR HEMOGLOBIN,[2]; tissue Blood,23.4 pg
same,MEAN CORPUSCULAR HEMOGLOBIN CONCENTRATION,[2]; tissue Blood,37.52 G/DL
same,MEAN CORPUSCULAR VOLUME,[2]; tissue Blood,62.32 fL
same,MONOCYTE,[2]; tissue Blood,4.17%
same,NEUTROPHIL,[2]; tissue Blood,10%
same,NUCLEATED RED BLOOD CELLS,[2]; tissue Blood,0 /100WBC
same,PLATELET COUNT,[2]; tissue Blood,1020 x10E3/uL
same,ALANINE AMINOTRANSFERASE,[2]; tissue Plasma,49 u/L
same,ALBUMIN,[2]; tissue Plasma,4.47 G/DL
same,ALKALINE PHOSPHATASE,[2]; tissue Plasma,361.17 u/L
same,ASPARTATE AMINOTRANSFERASE,[2]; tissue Plasma,78.67 u/L
same,BLOOD UREA NITROGEN,[2]; tissue Plasma,13.17 mg/dL
same,CARBON DIOXIDE,[2]; tissue Plasma,29.67 mmol/L
same,CHLORIDE,[2]; tissue Plasma,100.83 MEQ/L
same,CHOLESTEROL,[2]; tissue Plasma,82.17 mg/dL
same,CREATININE,[2]; tissue Plasma,0.15 mg/dL
same,GLUCOSE,[2]; tissue Plasma,150.83 mg/dL
same,LACTATE DEHYDROGENASE,[2]; tissue Plasma,239.17 u/L
same,LIPASE,[2]; tissue Plasma,7.83 u/L
same,PHOSPHORUS,[2]; tissue Plasma,13.82 mg/dL
same,POTASSIUM,[2]; tissue Plasma,6.62 MEQ/L
same,SODIUM,[2]; tissue Plasma,144.25 MEQ/L
same,TOTAL BILIRUBIN,[2]; tissue Plasma,0.15 mg/dL
same,TOTAL PROTEIN,[2]; tissue Plasma,6.2 G/DL
same,URIC ACID,[2]; tissue Plasma,1.57 mg/dL
